ChEMBL document CHEMBL3880440, “Antagonists of the toll-like receptor 1/2 complex” (2014)
Calls of active or inactive are those of the source. The calls are words filed in the database; no cut-off is given here.

What was measured:
[1] = molecular target: Toll-like receptor 1/2 (Mus musculus, UniProt Q9EPQ1+Q9QUN7); test: (§1) Antagonist activity at TLR1/2 in mouse RAW264.7 cells assessed as inhibition of Pam3CSK4-induced receptor activation by measuring NO production after 24 hrs; assay type: cell-based
Chain of Toll-like receptor 1/2 (Q9QUN7 whole entry): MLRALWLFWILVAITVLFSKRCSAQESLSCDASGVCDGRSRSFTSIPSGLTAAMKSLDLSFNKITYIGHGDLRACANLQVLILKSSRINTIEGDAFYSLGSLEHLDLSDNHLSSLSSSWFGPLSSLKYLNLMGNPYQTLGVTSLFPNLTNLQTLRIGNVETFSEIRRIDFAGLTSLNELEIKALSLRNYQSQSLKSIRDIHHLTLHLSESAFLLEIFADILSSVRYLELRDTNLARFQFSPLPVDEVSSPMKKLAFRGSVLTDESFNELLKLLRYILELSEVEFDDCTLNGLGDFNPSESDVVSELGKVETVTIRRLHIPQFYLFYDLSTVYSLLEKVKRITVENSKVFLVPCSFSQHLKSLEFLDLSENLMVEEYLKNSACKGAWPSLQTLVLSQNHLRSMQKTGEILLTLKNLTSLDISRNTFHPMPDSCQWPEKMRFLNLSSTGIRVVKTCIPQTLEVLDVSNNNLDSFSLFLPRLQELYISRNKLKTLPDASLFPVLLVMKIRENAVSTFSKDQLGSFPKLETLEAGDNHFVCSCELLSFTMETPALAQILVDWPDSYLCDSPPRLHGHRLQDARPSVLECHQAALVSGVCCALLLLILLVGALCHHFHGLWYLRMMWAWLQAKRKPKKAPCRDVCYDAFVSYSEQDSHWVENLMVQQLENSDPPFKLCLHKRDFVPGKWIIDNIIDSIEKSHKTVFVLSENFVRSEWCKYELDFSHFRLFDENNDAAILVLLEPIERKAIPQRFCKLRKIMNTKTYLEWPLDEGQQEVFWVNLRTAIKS
Chain of Toll-like receptor 1/2 (Q9EPQ1 whole entry): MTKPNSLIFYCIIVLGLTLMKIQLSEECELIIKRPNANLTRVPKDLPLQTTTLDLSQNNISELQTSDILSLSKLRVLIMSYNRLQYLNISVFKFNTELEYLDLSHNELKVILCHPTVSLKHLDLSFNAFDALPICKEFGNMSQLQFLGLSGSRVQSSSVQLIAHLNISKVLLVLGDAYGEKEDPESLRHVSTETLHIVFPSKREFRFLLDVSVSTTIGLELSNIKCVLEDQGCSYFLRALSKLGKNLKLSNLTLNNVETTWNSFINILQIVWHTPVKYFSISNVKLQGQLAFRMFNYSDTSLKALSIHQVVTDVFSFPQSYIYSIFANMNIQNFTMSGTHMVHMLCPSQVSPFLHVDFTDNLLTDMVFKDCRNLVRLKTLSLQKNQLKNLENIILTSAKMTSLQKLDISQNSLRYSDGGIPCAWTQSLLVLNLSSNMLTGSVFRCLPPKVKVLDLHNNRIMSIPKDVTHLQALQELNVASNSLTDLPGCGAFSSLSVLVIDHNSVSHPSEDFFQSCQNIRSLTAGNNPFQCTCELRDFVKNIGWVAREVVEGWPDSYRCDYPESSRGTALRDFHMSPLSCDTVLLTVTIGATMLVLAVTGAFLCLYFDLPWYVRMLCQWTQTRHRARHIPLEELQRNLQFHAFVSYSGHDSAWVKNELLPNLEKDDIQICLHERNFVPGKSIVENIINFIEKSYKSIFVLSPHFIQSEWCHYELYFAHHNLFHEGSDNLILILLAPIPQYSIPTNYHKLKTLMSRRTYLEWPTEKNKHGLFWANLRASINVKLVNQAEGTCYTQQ

[2] = molecular target: T1, Toll-like receptor 1/2 (Mus musculus) (UniProt Q9QUN7+Q9EPQ1); test: Antagonist activity at TLR1/2 in mouse RAW264.7 cells assessed as inhibition of Pam3CSK4-induced receptor activation by measuring NO production at 3 uM after 24 hrs; assay type: cell-based
[3] = molecular target: T1, Toll-like receptor 1/2 (Mus musculus); test: as §1; assay type: cell-based
[4] = Cytotoxicity against mouse RAW264.7 cells assessed as decrease in cell viability at 8 uM by MTT assay; assay type: cell-based; details: raw264.7, 8 µM
[5] = system: RAW264.7; test: Inhibition of Pam3CSK4-induced IL-1beta production in mouse RAW264.7 cells at 8 uM after 24 hrs by ELISA; assay type: functional, cell-based
[6] = system: RAW264.7; test: Inhibition of Pam3CSK4-induced TNF-alpha production in mouse RAW264.7 cells at 8 uM after 24 hrs by ELISA; assay type: functional, cell-based
[7] = molecular target: Toll-like receptor 1/2 (Homo sapiens) (UniProt O60603+Q15399); test: Antagonist activity at TLR1/2 in primary microglial cells (unknown origin) assessed as reduction in Pam3CSK4-induced IL-1beta mRNA expression level after 2 hrs; assay type: cell-based
[8] = Antiinflammatory activity in hippocampus (unknown origin) assessed as inhibition of Pam3CSK4-induced IL-1beta mRNA expression level at 5 to 50 ng coadministered with Pam3CSK4 via intra-cisterna magna measured after 2 hrs by RT-PCR analysis; assay type: functional
[9] = Antiinflammatory activity in hippocampus (unknown origin) assessed as inhibition of Pam3CSK4-induced TNF-alpha mRNA expression level at 5 to 50 ng coadministered with Pam3CSK4 via intra-cisterna magna measured after 2 hrs by RT-PCR analysis; assay type: functional
[10] = Antiinflammatory activity in hippocampus (unknown origin) assessed as inhibition of Pam3CSK4-induced IL-6 mRNA expression level at 5 to 50 ng coadministered with Pam3CSK4 via intra-cisterna magna measured after 2 hrs by RT-PCR analysis; assay type: functional
[11] = Cytotoxicity against mouse RAW264.7 cells assessed as decrease in cell viability at 3 uM by MTT assay; assay type: cell-based; details: raw264.7, 3 µM

Question: With `COc1cc2cccc(OC)c(=O)c2c(O)c1OC` as the compound, how does the IC50 [1] read?
Answer: Its IC50 is 11.7 µM.

Question: For `CCCCCCOC(=O)c1cc(O)c(=O)c2c(O)c(O)c(OC)cc2c1`, which inhibition [2] is on record?
Answer: The inhibition was > 70%.

Question: What about the inhibition [3] of the same compound?
Answer: The inhibition was “Dose-dependent effect”.

Question: What about the Activity [4] of the same compound?
Answer: Its Activity is “Non-Toxic”.

Question: What about the inhibition [5] of the same compound?
Answer: Its inhibition is “Active”.

Question: What about the inhibition [6] of the same compound?
Answer: The inhibition was “Active”.

Question: And the inhibition [7]?
Answer: The inhibition was “Dose-dependent effect”.

Question: And the inhibition [8]?
Answer: The inhibition was “Active”.

Question: What about the inhibition [9] of the same compound?
Answer: Its inhibition is “Active”.

Question: And the inhibition [10]?
Answer: Its inhibition is “Active”.

Question: With `O=c1c(O)cccc2cc(O)c(O)c(O)c12` [PURPUROGALLIN] as the compound, how does the inhibition [2] read?
Answer: Its inhibition is > 70%.

Question: What about the Activity [11] of the same compound?
Answer: The Activity was “Non-Toxic”.

Question: With `CCCCCCCCCCOC(=O)c1cc(O)c(=O)c2c(O)c(O)c(OC)cc2c1` as the compound, how does the IC50 [1] read?
Answer: The IC50 was 1.01 µM.

Question: For `CCCCNC(=O)c1cc(O)c(=O)c2c(O)c(O)c(OC)cc2c1`, which IC50 [1] is on record?
Answer: Its IC50 is 1.26 µM.

Question: Which inhibition [2] does the source give for `C=C(C)[C@H]1Cc2c(ccc3c2O[C@@H]2COc4cc(OC)c(OC)cc4[C@@H]2C3=O)O1` [ROTENONE] here?
Answer: The inhibition was > 70%.

Question: What about the Activity [11] of the same compound?
Answer: Its Activity is “Non-Toxic”.

Question: For `COC(=O)c1cc(O)c(=O)c2c(O)c(O)ccc2c1` [METHYL 7-DESHYDROXYPYROGALLIN-4-CARBOXYLATE], which IC50 [1] is on record?
Answer: Its IC50 is 9.01 µM.

Question: For `CCCCCCCCCCCCCCOC(=O)c1cc(O)c(=O)c2c(O)c(O)c(OC)cc2c1`, which IC50 [1] is on record?
Answer: Its IC50 is 3.24 µM.

Question: With `CC(=O)/C=C/Nc1ccccc1O` as the compound, how does the inhibition [2] read?
Answer: The inhibition was > 70%.

Question: What about the Activity [11] of the same compound?
Answer: The Activity was “Non-Toxic”.

Question: For `O=c1c(O)cccc2ccc(O)c(O)c12`, which IC50 [1] is on record?
Answer: Its IC50 is 2.25 µM.

Question: With `Oc1ccc(/N=C/c2c(O)ccc3ccccc23)cc1` as the compound, how does the inhibition [2] read?
Answer: The inhibition was > 70%.

Question: And the Activity [11]?
Answer: Its Activity is “Non-Toxic”.

Question: With `COc1cc2cc(C(=O)OC(C)C)cc(O)c(=O)c2c(O)c1O` as the compound, how does the IC50 [1] read?
Answer: The IC50 was 2.47 µM.

Question: For `CCOC(=O)c1cc(O)c(=O)c2c(O)c(O)c(OC)cc2c1`, which IC50 [1] is on record?
Answer: Its IC50 is 2.83 µM.

Question: Which inhibition [2] does the source give for `O=C(Nc1ccc(Cl)c(Cl)c1)Nc1ccccc1O` here?
Answer: Its inhibition is > 70%.

Question: And the Activity [11]?
Answer: The Activity was “Non-Toxic”.

Question: For `O=c1c(O)cccc2cc(F)c(O)c(O)c12`, which IC50 [1] is on record?
Answer: The IC50 was 22.7 µM.

Question: Which IC50 [1] does the source give for `CC(=O)Oc1cc2c(c(OC(C)=O)c1OC(C)=O)C(=O)C1(OC(C)=O)C=CC2C2C(=O)OC(=O)C21` (stereo not given) here?
Answer: The IC50 was 14.8 µM.

Question: With `O=C(O)c1cc(O)c(=O)c2c(O)c(O)ccc2c1` [7-DESHYDROXYPYROGALLIN-4-CARBOXYLIC ACID] as the compound, how does the IC50 [1] read?
Answer: The IC50 was 16.5 µM.

Question: Which IC50 [1] does the source give for `CC(=O)Oc1cc2cccc(OC(C)=O)c(=O)c2c(O)c1OC(C)=O` here?
Answer: The IC50 was 1.42 µM.

Question: For `Cc1cc(O)c(O)c2c(=O)c(O)cccc12`, which IC50 [1] is on record?
Answer: Its IC50 is 3.13 µM.

Question: What does the source list for `O=[N+]([O-])c1cc(Cl)cc2c1nc(NCCO)c1ccccc12`?
Answer: inhibition [2]: > 70%; Activity [11]: Non-Toxic

Question: For `O=C(/C=C/c1ccc(O)c(O)c1)c1ccccc1O`, which inhibition [2] is on record?
Answer: Its inhibition is > 70%.

Question: What about the Activity [11] of the same compound?
Answer: Its Activity is “Non-Toxic”.

Question: With `CN1CCN(C(=O)/C=C/c2ccc([N+](=O)[O-])o2)CC1` as the compound, how does the inhibition [2] read?
Answer: The inhibition was > 70%.

Question: What about the Activity [11] of the same compound?
Answer: Its Activity is “Non-Toxic”.

Question: With `COc1cc2c(c(OC)c1OC)C(=O)C1(OC)C=CC2C2C(=O)OC(=O)C21` (stereo not given) as the compound, how does the IC50 [1] read?
Answer: Its IC50 is 74.6 µM.

Question: For `CCCCCCCCOC(=O)c1cc(O)c(=O)c2c(O)c(O)c(OC)cc2c1`, which IC50 [1] is on record?
Answer: The IC50 was 0.72 µM.

Question: For `COc1cccc(NC(S)=Nc2ccc(O)cc2)c1`, which inhibition [2] is on record?
Answer: Its inhibition is > 70%.

Question: What about the Activity [11] of the same compound?
Answer: Its Activity is “Non-Toxic”.

Question: For `CCCCOC(=O)c1cc(O)c(=O)c2c(O)c(O)c(OC)cc2c1`, which IC50 [1] is on record?
Answer: Its IC50 is 2.83 µM.

Question: For `CC(=O)Oc1cc2cccc(O)c(=O)c2c(O)c1O`, which IC50 [1] is on record?
Answer: Its IC50 is 4.83 µM.

Question: Which IC50 [1] does the source give for `CC(=O)Oc1cc2cccc(OC(C)=O)c(=O)c2c(OC(C)=O)c1OC(C)=O` here?
Answer: Its IC50 is 2.35 µM.
